Test results: PubChem BioAssay (NCI)
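Growth conditions: 96-well plates. Treatment: test compound, 48 hours, 5 concentrations. Analysis: linear interpolation between bracketing concentrations; unreached endpoints set to highest concentration. TGI: concentration producing complete growth inhibition.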

Legend:
Experiment in all cases: growth of human tumour cells (NCI), 48 h
[1] = tested on: CAKI-1 renal
[2] = tested on: LOX IMVI melanoma
[3] = tested on: RPMI-8226 leukemia
[4] = tested on: UACC-257 melanoma
[5] = tested on: OVCAR-5 ovarian
[6] = tested on: UACC-62 melanoma
[7] = tested on: IGROV1 ovarian
[8] = tested on: SW-620 colon
[9] = tested on: HOP-62 NSCLC
[10] = tested on: SK-OV-3 ovarian
[11] = tested on: A498 renal
[12] = tested on: TK-10 renal
[13] = tested on: OVCAR-3 ovarian
[14] = tested on: K-562 leukemia
[15] = tested on: SNB-19 CNS
[16] = tested on: NCI-H226 lung
[17] = tested on: NCI/ADR-RES ovarian
[18] = tested on: OVCAR-4 ovarian
[19] = tested on: SNB-75 CNS

## CC(C)(Oc1ccc2c(=O)cc(-c3ccc(Cl)cc3)oc2c1)C(=O)Nc1c(Cl)cccc1Cl
[1]
  TGI: > 100 µM
[2]
  TGI: > 100 µM
[3]
  TGI: > 100 µM
[4]
  TGI: > 100 µM
[5]
  TGI: > 100 µM
[6]
  TGI: > 100 µM
[7]
  TGI: > 100 µM
[8]
  TGI: > 100 µM
[9]
  TGI: > 100 µM
[10]
  TGI: > 100 µM
[11]
  TGI: > 100 µM
[12]
  TGI: > 100 µM
[13]
  TGI: > 100 µM
[14]
  TGI: > 100 µM
[15]
  TGI: > 100 µM

## O=c1c2ccccc2ncn1COCc1ccccc1
[2]
  TGI: > 100 µM
[4]
  TGI: > 100 µM
[5]
  TGI: > 100 µM
[6]
  TGI: > 100 µM
[7]
  TGI: > 100 µM
[8]
  TGI: > 100 µM
[16]
  TGI: > 100 µM
[10]
  TGI: > 100 µM
[11]
  TGI: > 100 µM
[12]
  TGI: > 100 µM
[13]
  TGI: > 100 µM
[17]
  TGI: > 100 µM
[18]
  TGI: > 100 µM
[14]
  TGI: > 100 µM
[15]
  TGI: > 100 µM

## COc1ccc(C/C=C(\C)CCO)cc1
[1]
  TGI: 94.3 µM
[2]
  TGI: > 100 µM
[3]
  TGI: 89.8 µM
[4]
  TGI: > 100 µM
[5]
  TGI: > 100 µM
[6]
  TGI: > 100 µM
[7]
  TGI: > 100 µM
[8]
  TGI: > 100 µM
[9]
  TGI: > 100 µM
[19]
  TGI: > 100 µM
[10]
  TGI: > 100 µM
[12]
  TGI: > 100 µM
[13]
  TGI: > 100 µM
[17]
  TGI: > 100 µM
[18]
  TGI: > 100 µM
[14]
  TGI: > 100 µM
[15]
  TGI: > 100 µM

## N=C1c2ccccc2C(=O)c2c(NCCNCCO)ccc(O)c21
[1]
  TGI: 26.5 µM
[2]
  TGI: 15.6 µM
[3]
  TGI: 24.6 µM
[4]
  TGI: > 51.6 µM
[5]
  TGI: 84.7 µM
[6]
  TGI: 18.9 µM
[7]
  TGI: 46.8 µM
[8]
  TGI: 15.8 µM
[9]
  TGI: 22.5 µM
[19]
  TGI: 49.3 µM
[16]
  TGI: 44.7 µM
[10]
  TGI: 50.2 µM
[11]
  TGI: 33.8 µM
[12]
  TGI: > 62.3 µM
[13]
  TGI: 52.7 µM
[18]
  TGI: 83.3 µM
[14]
  TGI: > 28.8 µM
[15]
  TGI: 84.8 µM

## O=C1/C(=C/c2ccc([N+](=O)[O-])cc2)CCCc2ccccc21
[1]
  TGI: > 100 µM
[2]
  TGI: > 100 µM
[3]
  TGI: > 100 µM
[4]
  TGI: > 100 µM
[5]
  TGI: > 100 µM
[6]
  TGI: > 100 µM
[7]
  TGI: > 100 µM
[8]
  TGI: > 100 µM
[9]
  TGI: > 100 µM
[19]
  TGI: > 100 µM
[16]
  TGI: > 100 µM
[10]
  TGI: > 100 µM
[12]
  TGI: > 100 µM
[13]
  TGI: > 100 µM
[17]
  TGI: > 100 µM
[18]
  TGI: > 100 µM
[14]
  TGI: > 100 µM
[15]
  TGI: > 100 µM

## COc1c(C)c(C/C=C(\C)CC/C=C(\C)CC/C=C(\C)CC/C=C(\C)CCC=C(C)C)c(OC)c(OC)c1OC
[1]
  TGI: > 100 µM
[2]
  TGI: 33.7 µM
[4]
  TGI: > 100 µM
[5]
  TGI: > 100 µM
[6]
  TGI: > 100 µM
[7]
  TGI: 60.3 µM
[8]
  TGI: > 100 µM
[9]
  TGI: 37.6 µM
[19]
  TGI: > 100 µM
[10]
  TGI: > 100 µM
[12]
  TGI: 69 µM
[13]
  TGI: > 100 µM
[17]
  TGI: 59.8 µM
[18]
  TGI: 52.3 µM
[14]
  TGI: 55.1 µM
[15]
  TGI: > 100 µM

## CCCNC(=O)Cn1c2c(c3ccccc31)CCCC2
[1]
  TGI: > 100 µM
[2]
  TGI: > 100 µM
[3]
  TGI: > 100 µM
[4]
  TGI: > 100 µM
[5]
  TGI: > 100 µM
[6]
  TGI: > 100 µM
[7]
  TGI: > 100 µM
[8]
  TGI: > 100 µM
[9]
  TGI: > 100 µM
[10]
  TGI: > 100 µM
[11]
  TGI: > 100 µM
[12]
  TGI: > 100 µM
[13]
  TGI: > 100 µM
[17]
  TGI: > 100 µM
[18]
  TGI: > 100 µM
[14]
  TGI: > 100 µM
[15]
  TGI: > 100 µM
